Data on three compounds can be found in patent publication US11685714B2, “Prodrugs of cytotoxic active agents having enzymatically cleavable groups” (BAYER PHARMA AKTIENGESELLSCHAFT, priority 2016, dated 2023).

The subject of data set [1] is NCI-H292: human mucoepidermoid lung carcinoma cells. The data set can be described thus: MTT assay on NCI-H292. The class given is cell-based. The following applies: NCI-H292, 96 h, growth inhibition, 96 h incubation. As to the method: (§1) The analysis of the cytotoxic effects of the ADCs was carried out with various cell lines:
(§2) The cells were cultivated by the standard method as stated by the American Tissue Culture Collection (ATCC) or the Leibniz-lnstitut DSMZ-Deutsche Sammlung von Mikroorganismen und Zellkulturen GmbH (DSMZ) for the cell lines in question.
(§3) The cells were then incubated in an incubator at 37° C. and 5% carbon dioxide. […] To this end, the MTT reagent was incubated with the cells for 4 h, followed by lysis of the cells overnight by addition of the detergent. […] The measured data were used to calculate the ICo50 of the growth inhibition using the DRC (dose response curve). The proliferation of cells which were not treated with test substance but were otherwise identically treated was defined as the 100% figure.
Background: Formazan colour is commonly taken as a measure of viable cells.

Data set [2] deals with KPL4: human breast cancer cell line. In words: MTT assay on KPL4. The class given is cell-based. As to conditions: KPL4, 96 h, growth inhibition, 96 h incubation. As to the method:
as §1, §2, §3

Data set [3] addresses T1, motor domain of the human kinesin spindle protein KSP/Eg5 (Homo sapiens, UniProt P52732).
T1 construct: The motor domain of the human kinesin spindle protein KSP/Eg5; purchased tebu-bio/Cytoskeleton Inc 027EG01-XL
T1 sequence (P52732 18-359 limits assumed): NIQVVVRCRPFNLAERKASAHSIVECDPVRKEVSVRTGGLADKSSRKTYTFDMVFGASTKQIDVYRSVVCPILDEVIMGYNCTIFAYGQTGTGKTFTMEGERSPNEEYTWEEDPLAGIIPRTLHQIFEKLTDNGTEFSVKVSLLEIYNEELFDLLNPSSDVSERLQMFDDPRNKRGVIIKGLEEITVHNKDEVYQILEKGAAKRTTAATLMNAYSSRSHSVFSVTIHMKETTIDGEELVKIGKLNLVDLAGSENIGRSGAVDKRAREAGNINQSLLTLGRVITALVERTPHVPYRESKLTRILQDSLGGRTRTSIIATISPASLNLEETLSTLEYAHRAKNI
In words: Inhibition of the kinesin spindle protein KSP/Eg5 (ATPase activity, malachite green). The class given is biochemical. As to conditions: 10 nM KSP/Eg5, microtubuli, 500 μM ATP, 2 h at RT. How it is done: The motor domain of the human kinesin spindle protein KSP/Eg5 (tebu-bio/Cytoskeleton Inc, No. 027EG01-XL) was incubated in a concentration of 10 nM with microtubuli (bovine or porcine, tebu-bio/Cytoskeleton Inc) stabilized with 50 μg/ml taxol (Sigma No. T7191-5MG) for 5 min at RT in 15 mM PIPES, pH 6.8 (5 mM MgCl2 and 10 mM DTT, Sigma). […] Incubation was at RT for 2 h. ATPase activity was detected by detecting the inorganic phosphate formed using malachite green (Biomol). […] The positive controls used were monastrol (Sigma, M8515-1 mg) and ispinesib (AdooQ Bioscience A10486). The individual data of the dose-activity curve are eight-fold determinations. The IC50 values are means of two independent experiments.

In data set [4] the test system is SK-HEP-1: human liver cell cancer line. The data set can be described thus: MTT assay on SK-HEP-1. The format is cell-based. The following applies: SK-HEP1, 96 h, growth inhibition, 96 h incubation. As to the method:
as §1, §2, §3

A short description of data set [5]: Assay for determination of stability in rat plasma. The format is in vitro ADME. As to conditions: 1 μg/ml, 37° C., 24 h. As to the method:
To examine the stability of compounds A and B, 1 ml of rat plasma in a 1.5 ml Eppendorf tube in each case was equilibrated to 37° C. on an Eppendorf shaker. A stock solution (9 acetonitrile/1 DMSO) having a concentration of 100 μg/ml for compound A and compound B was prepared. 10 μl in each case of the stock solution were pipetted into 1 ml of equilibrated rat plasma, so as to give a concentration of 1 μg/ml.
The samples were kept at 450 rpm and 37° C. for 24 h. At each of the sampling times of 0, 0.25 h, 0.5 h, 1 h, 2 h, 4 h, 6 h and 24 h, 50 μl were taken and pipetted into 150 μl of methanol. Internal standard was included in the initial charge of methanol at a concentration of 0.05 μg/ml. After brief vortexing, 300 μl of 10 mM ammonium acetate buffer (pH 6.8) were added and centrifuged at 1881 g for 10 min. The samples were then analysed by means of RP-HPLC analysis and by LC-MS analysis.

As to `CC(C)(C)[C@H](c1cc(-c2cc(F)ccc2F)cn1Cc1ccccc1)N(CC[C@H](N)C(=O)NCCNC(=O)CNC(=O)CCCC(=O)NCCCC[C@H](N)C(=O)O)C(=O)CO` [Example M28, N^6—{(3R,7S)-7-Amino-3-[1-benzyl-4-(2,5-difluorophenyl)-1H-pyrrol-2-yl]-4-glycoloyl-2,2-dimethyl-8,13,16,20-tetraoxo-4,9,12,15-tetraazaicosan-20-yl}-L-lysine/trifluoroacetic acid (1:1)], the IC50 is 0.155 µM in data set [1], 0.21 µM in data set [2], 0.00141 µM in data set [3] and 0.187 µM in data set [4].

With `CC(C)(C)[C@H](c1cc(-c2cc(F)ccc2F)cn1Cc1ccccc1)N(CC[C@H](N)C(=O)NCCNC(=O)CCCC(=O)NCCCC[C@H](N)C(=O)O)C(=O)CO` [Example M29, N^6-(5-{[2-({(2S)-2-Amino-4-[{(1R)-1-[1-benzyl-4-(2,5-difluorophenyl)-1H-pyrrol-2-yl]-2,2-dimethylpropyl} (glycoloyl)amino]butanoyl}amino)ethyl]amino}-5-oxopentanoyl)-L-lysine/trifluoroacetic acid (1:1)], the half-maximal inhibitory concentration (IC50) came to 0.187 µM in data set [1], 0.00203 µM in data set [3] and 0.207 µM in data set [4].

Turning to `CNC(=O)[C@H](CCN(C(=O)CO)[C@@H](c1cc(-c2cc(F)ccc2F)cn1Cc1ccccc1)C(C)(C)C)NC(=O)[C@H](CC(N)=O)NC(=O)[C@H](C)NC(=O)[C@H](C)NC(=O)Cc1ccncc1` [Example R3r-LLL, N-(Pyridin-4-ylacetyl)-L-alanyl-L-alanyl-N^1-[(2S)-4-[{(1R)-1-[1-benzyl-4-(2,5-difluorophenyl)-1H-pyrrol-2-yl]-2,2-dimethylpropyl}(glycoloyl)amino]-1-(methylamino)-1-oxobutan-2-yl]-L-aspartamide, reference compound], in data set [5], the “stability in rat plasma” value was “stable over 24 h”. For the same compound, the IC50 in data set [1] was 0.204 µM; in data set [3], 0.162 µM; in data set [4], 0.232 µM.

In general, IC50 refers to the point on the concentration scale where inhibition reaches its midpoint. A lower IC50 goes with greater potency.
